Experimental data as given in patent publication US5814634A, “Alkylenediamine derivative anti-ulcer drug and antibacterial drug” (Shiseido Co. Ltd., priority 1996, dated 1998).

Assays:
stress ulcer = experiment: WIS: Restraint and Water Immersion Stress-Induced Ulcer Inhibition Test; assay type: in vivo, rat (male Crj:SD or Slc:SD); conditions: 100 mg/kg oral, rats, water immersion stress 7 hours
How it was run: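 Fasted male SD rats (6–7 weeks, 5–8 per group) received compound orally at 100 mg/kg in 0.3% CMC-Na or 0.05% Tween 80; 10 min later, restraint with water immersion (21 °C) for 7 h. Summed glandular erosion length gave the ulcer index; inhibition (%) versus vehicle controls.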

gastric mucosa = experiment: PD: Gastric Mucosal Integrity Test (gastric mucosal potential difference); assay type: in vivo, rat (male Crj:SD); parameters: key: 5: Same as the control with no recognizable damage at all.; 4: Though a slight PD-decreasing tendency suggesting a slight possibility of mucosal damage is found, there is no problem.; 3: Though a weak decrease in PD and a possibility of a weak mucosal damage is recognized, there is no substantial problem.; 2: Medium degree of decrease in PD is found and a mucosal damage is recognized.; 1: Heavy degree of decrease in PD is found and a remarkable mucosal damage is recognized; conditions: 100 mg/kg into chamber, rats, 60 minutes
Procedure: PD: Gastric Mucosal Integrity Test
In this case, since the sample compound has a necrotizing effect, it is inappropriate as an anti-ulcer medicament.
Therefore, the gastric mucosal potential difference (PD), which reflects the integrity of the gastric mucosa, is measured so as to confirm that the sample compound has no damaging effect on gastric mucosa, which is toxicity at gastric mucosal level.
Male Crj:SD rats (7 to 8-week-old) were fasted overnight, but allowed free access to water, and then, under urethane anesthesia (1.25 g/kg, i.p.), fixed to a cork board on its back. The abdomen of each rat was incised, and a small incision was made in the forestomach. Then, the inside of the stomach was washed with physiological saline heated at 37° C. From the forestomach, along the greater curvature thereof, the stomach was incised without damaging blood vessels. After the height of the cork board was adjusted on a jack, the stomach was mounted on ex vivo chamber. The area of the gastric mucosa exposed to the inside of this chamber was 2.5 cm^2. The inside of the chamber was perfused with physiological saline warmed at 37° C. by micro tube pump. By using an agar bridge containing 3M KCl, the potential difference between the chamber and the abdominal cavity was measured by a PD meter. Here, the rectal temperature was measured to control the body temperature during the experiment. After the PD was sufficiently stabilized, the perfusate was stopped and then 100 mg/10 ml/kg of the sample compound dissolved or suspended in an aqueous solution of 0.5% sodium carboxymethyl cellulose or 0.05% Tween 80 was administered into the chamber, while PD was recorded for 60 minutes. To a control, the vehicle was administered.
The change in PD during 60 minutes after the administration of 100 mg/kg of the sample compound was collectively studied and, with reference to the positive control, classified into 5 levels as follows:
5: Same as the control with no recognizable damage at all.
3: Though a weak decrease in PD and a possibility of a weak mucosal damage is recognized, there is no substantial problem.
2: Medium degree of decrease in PD is found and a mucosal damage is recognized.
1: Heavy degree of decrease in PD is found and a remarkable mucosal damage is recognized.

CC(C)=CCOc1ccc(C(=O)NCCN2CCOCC2)cc1 [Example 28]
WIS: ulcer formation inhibitory rate (stress ulcer): 64%
PD: change in gastric mucosal potential difference, 5 levels (gastric mucosa): 5

CC(C)=CCC/C(C)=C/COc1ccc(C(=O)NCCN2CCOCC2)cc1 [Example 31]
WIS: ulcer formation inhibitory rate (stress ulcer): 54%
PD: change in gastric mucosal potential difference, 5 levels (gastric mucosa): 3

CC(C)=CCOc1ccc(C(=O)NCCN2CCOCC2)cc1OCC=C(C)C [Example 35]
WIS: ulcer formation inhibitory rate (stress ulcer): 48%
PD: change in gastric mucosal potential difference, 5 levels (gastric mucosa): 5
